# Patent publication US7563788B2, “Substituted Imidazo[1,2-a]pyridines as Antibacterial Agents” (Pfizer Inc., priority 2004, dated 2009)
# Test system: Neisseria gonorrhoeae, GC525 (NG-2888)
# Assay: In-vitro antibacterial activity, microbroth dilution MIC susceptibility testing
# Format: cell-based
# Conditions: gonococcal broth, 20-24 hours at 35° C., lowest concentration preventing visible growth
# Description: The in-vitro antibacterial activity of selected compounds was determined against a stain of Neisseria gonorrhoeae, GC525 (NG-2888), which is described by Rouquette-Loughlin et al, in Journal of Bacteriology, February 2003, p. 1101-1106, at p. 1103. In general, minimum inhibitory concentration (MIC) susceptibility testing followed procedures recommended by the National Committee for Clinical Laboratory Standards (NCCLS^1-2) or followed the descriptions described below:
# Neisseria gonorrhoeae strains were grown on Chocolate Agar II plates (BBL—Becton Dickinson Microbiology Systems, Cockeysville, Md.) and incubated at 35° C. in a humidified 5% CO2 incubator (Forma Scientific, Marietta Ohio). For microbroth dilution MIC testing, N. gonorrhoeae were tested in gonococcal broth (GCB):
# Bacterial culture identifications were confirmed by standard microbiological methods.^4 N. gonorrhoeae strains were streaked onto appropriate agar plates for visualization of purity and expected colony morphology. Gram stains were also utilized.
# Bacterial stock cultures are stored as frozen suspensions at −70° C. N. gonorrhoeae cultures are suspended in inactivated Horse Serum (Colorado Serum Company, Denver, Colo.) containing 7.5% glucose prior to snap freezing in a dry ice/ethanol bath.
# Frozen stock cultures were used as the initial source of organisms for performing microbroth dilution MIC testing. Stock cultures were passed on their respective growth medium at least one growth cycle (18-24 hours) prior to their use. Bacterial culture suspensions were prepared directly from Chocolate Agar II plates into 10 mL cation-adjusted Mueller-Hinton Broth (CAMHB, BBL, # BB215069). Before use, cultures were adjusted to an optical density value of […] on a Perkin-Elmer Lambda EZ150 Spectrophotometer (Wellesley, Mass.) set at a wavelength of 600 nm. Random cultures were plated for validation of actual colony counts. The adjusted cultures were diluted 400-fold (0.25 mL inoculum+100 mL GCB) into gonococcal broth producing a starting inoculum of approximately 5×10^5 cfu/mL. These cultures were inoculated into test plates (100 uL/well) using a Biomek® FX workstation (Beckman Coulter Inc., Fullerton, Calif.). The inoculated plates were placed in stacks of no more than 4 and covered with an empty plate. Plates were incubated for 20-24 hours at 35° C. in a humidified CO2 incubator.
# Drug stock solutions (2 mg/mL in DMSO) were prepared on the day of testing. Drugs were weight corrected for assay content where necessary.
# Microbroth dilution stock plates were prepared in two dilution series, 64-0.06 ug drug/mL and 1-0.001 ug drug/mL. For the high concentration series, 200 uL of stock solution (2 mg/mL) was added to duplicate rows of a 96-well plate. This was used as the first well in the dilution series. Serial two-fold decremental dilutions were made using a BioMek FX robot (Beckman Coulter Inc., Fullerton, Calif.) with 10 of the remaining 11 wells, each of which contained 100 uL of the appropriate solvent/diluent. Row 12 contained solvent/diluent only and served as the control. For tube one of the low concentration series, 200 uL of a 31.25 ug/mL stock was added to duplicate rows of a 96-well plate. Serial two-fold dilutions were made as described above.
# Daughter plates were spotted (3.2 uL/well) from the stock plates listed above using the BioMek FX robot and were inoculated with organism (100 uL/well) as described previously.
# After incubation, the degree of growth in each well was read visually with the aid of a Test Reading Mirror (Dynatech Lab 220-16, Dynex Technologies, Chantilly, Va.). 96-well test plates are read in a darkened room with a single light shining from above. The MIC is the lowest concentration of drug that prevents macroscopically visible growth under the conditions of the test. Each drug dilution series was tested in duplicate; identical results are not always obtained. If MIC values in duplicate tests differ by 1 well (two-fold), the […] value is reported. […]
row,MIC [µg/mL],SMILES
1,5.66,"CCNC(=O)Nc1cn2c(CO)cc(-c3cccnc3)cc2n1 [Example 7A, 1-Ethyl-3-(5-hydroxymethyl-7-pyridin-3-yl-imidazo[1,2-a]pyridin-2-yl)-urea]"
2,> 64,"CCNC(=O)Nc1cn2ccc(-c3noc(C)n3)cc2n1 [Example 22, 1-Ethyl-3-[7-(5-methyl-[1,2,4]oxadiazol-3-yl)-imidazo[1,2-a]pyridin-2-yl]-urea]"
3,> 64,"CCOC(=O)Nc1cn2cnc(-c3cccnc3)cc2n1 [Example 5, (7-Pyridin-3-yl-imidazo[1,2-c]pyrimidin-2-yl)-carbamic Acid Ethyl Ester]"
4,0.13,"CCNC(=O)Nc1cn2c(-c3ncccn3)cc(-c3cnc(N(C)C)nc3)cc2n1 [Example 51, 1-[7-(2-Dimethylamino-pyrimidin-5-yl)-5-pyrimidin-2-yl-imidazo[1,2-a]pyridin-2-yl]-3-ethyl-urea]"
5,64,"CCNC(=O)Nc1cn2ccc(-c3cnn(C)c3)cc2n1 [Example 12, 1-Ethyl-3-[7-(1-methyl-1H-pyrazol-4-yl)-imidazo[1,2-a]pyridin-2-yl]-urea]"
6,16,"CCNC(=O)Nc1cn2ccc(-c3ccnc(OC)c3)cc2n1 [Example 44, 1-Ethyl-3-[7-(2-methoxy-pyridin-4-yl)-imidazo[1,2-a]pyridin-2-yl]-urea]"
7,> 64,"CCNC(=O)Nc1cn2ccc(-c3noc(C(C)C)n3)cc2n1 [Example 40, 1-Ethyl-3-[7-(5-isopropyl-[1,2,4]oxadiazol-3-yl)-imidazo[1,2-a]pyridin-2-yl]-urea]"
8,64,"CCNC(=O)Nc1cn2ccc(-c3ccnc(N)c3)cc2n1 [Example 42, 1-[7-(2-Amino-pyridin-4-yl)-imidazo[1,2-a]pyridin-2-yl]-3-ethyl-urea]"
9,16,"CCNC(=O)Nc1cn2ccc(-c3ccc(N)nc3)cc2n1 [Example 34, 1-[7-(6-Amino-pyridin-3-yl)-imidazo[1,2-a]pyridin-2-yl]-3-ethyl-urea]"
10,0.25,"CCNC(=O)Nc1cn2c(-c3nc(C)no3)cc(-c3cccnc3)cc2n1 [Example 45, 1-Ethyl-3-[5-(3-methyl-[1,2,4]oxadiazol-5-yl)-7-pyridin-3-yl-imidazo[1,2-a]pyridin-2-yl]-urea]"
11,> 64,"CCNC(=O)Nc1cn2ccc(-c3nc(C)n[nH]3)cc2n1 [Example 20, 1-Ethyl-3-[7-(5-methyl-2H-[1,2,4]triazol-3-yl)-imidazo[1,2-a]pyridin-2-yl]-urea]"
12,16,"CCNC(=O)Nc1cn2ccc(-c3cccnc3)cc2n1 [Example 1B, 1-Ethyl-3-(7-pyridin-3-yl-imidazo[1,2-a]pyridin-2-yl)-urea]"
13,> 64,"CCNC(=O)Nc1cn2ccc(-c3c(C)noc3C)cc2n1 [Example 9, 1-[7-(3,5-Dimethyl-isoxazol-4-yl)-imidazo[1,2-a]pyridin-2-yl]-3-ethyl-urea]"
14,16,"CCNC(=O)Nc1cn2ccc(-c3ccc(F)nc3)cc2n1 [Example 46, 1-Ethyl-3-[7-(6-fluoro-pyridin-3-yl)-imidazo[1,2-a]pyridin-2-yl]-urea]"
15,64,"CCNC(=O)Nc1cn2ccc(-c3nnc(C)o3)cc2n1 [Example 36, 1-Ethyl-3-[7-(5-methyl-[1,3,4]oxadiazol-2-yl)-imidazo[1,2-a]pyridin-2-yl]-urea]"
16,64,"CCNC(=O)Nc1nc2cc(-c3cccnc3)ccn2c1Cl [Example 16, 1-(3-Chloro-7-pyridin-3-yl-imidazo[1,2-a]pyridin-2-yl)-3-ethyl-urea]"
17,> 64,"CCOC(=O)Nc1cn2ccc(-c3cccnc3)cc2n1 [Example 1A, (7-Pyridin-3-yl-imidazo[1,2-a]pyridin-2-yl)-carbamic Acid Ethyl Ester]"

# Further lines, the molecule ahead of its results:
row,SMILES,MIC [µg/mL]
1,"CCNC(=O)Nc1cn2ccc(C(C)=O)cc2n1 [Example 35, N-(7-acetylimidazo[1,2-a]pyridin-2-yl)-N′-ethylurea]",64
2,"O=C(Nc1cn2ccc(-c3cncnc3)cc2n1)NC1CCC1 [Example 33, 1-Cyclobutyl-3-(7-pyrimidin-5-yl-imidazo[1,2-a]pyridin-2-yl)-urea]",16
3,"CCNC(=O)Nc1cn2ccc(C(=O)O)cc2n1 [Example 24, 2-(3-Ethyl-ureido)-imidazo[1,2-a]pyridine-7-carboxylic Acid]",> 64
4,"CCNC(=O)Nc1cn2ccc(-c3cnc(OC)nc3OC)cc2n1 [Example 13, 1-[7-(2,4-Dimethoxy-pyrimidin-5-yl)-imidazo[1,2-a]pyridin-2-yl]-3-ethyl-urea]",> 64
5,"CCNC(=O)Nc1cn2ccc(-c3ccnc(NC(=O)OC(C)(C)C)c3)cc2n1 [Example 37, {4-[2-(3-Ethyl-ureido)-imidazo[1,2-a]pyridin-7-yl]-pyridin-2-yl}-carbamic Acid Tert-Butyl Ester]",64
6,"CCNC(=O)Nc1cn2ccc(C(N)=O)cc2n1 [Example 19, 2-(3-Ethyl-ureido)-imidazo[1,2-a]pyridine-7-carboxylic Acid Amide]",> 64
7,"CCNC(=O)Nc1cn2ccc(C(=O)OC)cc2n1 [Example 18, 2-(3-Ethyl-ureido)-imidazo[1,2-a]pyridine-7-carboxylic Acid Methyl Ester]",> 64
8,"CCNC(=O)Nc1cn2ccc(-c3cn[nH]c3)cc2n1 [Example 15, 1-Ethyl-3-[7-(1H-pyrazol-4-yl)-imidazo[1,2-a]pyridin-2-yl]-urea]",64
9,"CCNC(=O)Nc1cn2ccc(-c3cnn(Cc4ccccc4)c3)cc2n1 [Example 10, 1-[7-(1-Benzyl-1H-pyrazol-4-yl)-imidazo[1,2-a]pyridin-2-yl]-3-ethyl-urea]",8
10,"COCCNC(=O)Nc1cn2ccc(-c3cncnc3)cc2n1 [Example 32, 1-(2-Methoxy-ethyl)-3-(7-pyrimidin-5-yl-imidazo[1,2-a]pyridin-2-yl)-urea]",> 64
11,"O=C(NCC(F)(F)F)Nc1cn2ccc(-c3cncnc3)cc2n1 [Example 31, 1-(7-Pyrimidin-5-yl-imidazo[1,2-a]pyridin-2-yl)-3-(2,2,2-trifluoro-ethyl)-urea]",64
12,"CCNC(=O)Nc1nc2cc(-c3cnc(N(C)C)nc3)ccn2c1Cl [Example 17, 1-[3-Chloro-7-(2-dimethylamino-pyrimidin-5-yl)-imidazo[1,2-a]pyridin-2-yl]-3-ethyl-urea]",> 32
13,"CCNC(=O)Nc1cn2ccc(-c3ccc(N4CCN(C)CC4)nc3)cc2n1 [Example 11, 1-Ethyl-3-{7-[6-(4-methyl-piperazin-1-yl)-pyridin-3-yl]-imidazo[1,2-a]pyridin-2-yl}-urea]",64
14,"CCNC(=O)Nc1cn2ccc(-c3csnn3)cc2n1 [Example 39, 1-Ethyl-3-(7-[1,2,3]thiadiazol-4-yl-imidazo[1,2-a]pyridin-2-yl)-urea]",16
15,"O=C(NCC1CC1)Nc1cn2ccc(-c3cncnc3)cc2n1 [Example 28, 1-Cyclopropylmethyl-3-(7-pyrimidin-5-yl-imidazo[1,2-a]pyridin-2-yl)-urea]",32
16,"CCNC(=O)Nc1cn2ccc(-c3c(C)n[nH]c3C)cc2n1 [Example 25, 1-[7-(3,5-Dimethyl-1H-pyrazol-4-yl)-imidazo[1,2-a]pyridin-2-yl]-3-ethyl-urea]",64
17,"O=C(Nc1cn2ccc(-c3cncnc3)cc2n1)NC1CC1 [Example 27, 1-Cyclopropyl-3-(7-pyrimidin-5-yl-imidazo[1,2-a]pyridin-2-yl)-urea]",64
18,"CCNC(=O)Nc1cn2ccc(-c3ccc(OCCN4CCOCC4)nc3)cc2n1 [Example 6, 1-Ethyl-3-{7-[6-(2-morpholin-4-yl-ethoxy)-pyridin-3-yl]-imidazo[1,2-a]pyridin-2-yl}-urea]",45.3
19,"CCNC(=O)Nc1cn2ccc(-c3c(C)nn(C(=O)OC(C)(C)C)c3C)cc2n1 [Example 14, 4-[2-(3-Ethyl-ureido)-imidazo[1,2-a]pyridin-7-yl]-3,5-dimethyl-pyrazole-1-carboxylic Acid Tert-Butyl Ester]",64
